{
  "source": "patent US5837548A",
  "about": "“Treatment of inflammation by inhibition of lipid body formation” (Beth Israel Hospital, priority 1995, dated 1998)",
  "key": {"[1]": {"system": "peritoneal macrophages from COX 1 knockout mice", "assay": "lipid body formation in peritoneal macrophages from cyclooxygenase-1 knockout mice", "assay_type": "cell-based, mouse", "conditions": "for induction of lipid body formation in macrophages: cyclooxygenase-1 deficient mice, AA 3.7-15 μM or OA 2.5-10 μM", "method": "(§1) FIG. 4 is a graph illustrating the effects of arachidonic acid and oleic acid on lipid body formation in peritoneal macrophages from wild type (+/+) and cyclooxygenase-1 knockout (-/-) mice. The agonists AA and OA are represented by the square and circle symbols, respectively. The closed symbols represent the wild type mice; the open symbols represent the cyclooxygenase-1 knockout mice. Macrophages (10^6 /mL) were incubated with the agonists AA and OA at varying concentrations for an hour. Lipid bodies were enumerated using light microscopy following osmium staining. Each point represents the mean±SEM from fifty consecutively scanned macrophages.\n(§2) Cyclooxygenase-1 and cyclooxygenase-2 knockout mice were generated as recently described (Morham et al., Cell 83:473-482 (1995); Langenbach et al., Cell 83:483-492 (1995)). All experiments were carried out with male 8-12 week old mice. Macrophages from cyclooxygenase genetically deficient mice and wild-type litter mates were obtained by lavaging the peritoneal cavity with 5 mL of cold RPMI containing heparin (20 IU/mL).\n(§3) ^1 Peritoneal macrophages from wild type and COX 1 knockout mice were\n(§4) pretreated with the NSAID or vehicle for 1h and then stimulated with\n(§5) arachidonic acid (AA, 15 μM) or vehicle for 1h. Results are mean ±\n(§6) SEM from fifty consecutively counted macrophages. The statistically"}, "[2]": {"system": "macrophages from cyclooxygenase-2 deficient mice", "assay": "lipid body formation in macrophages from cyclooxygenase-2 deficient mice", "assay_type": "cell-based, mouse", "conditions": "AA 3.7-15 μM or OA 2.5-10 μM", "method": "as §2"}, "human neutrophils": {"system": "human neutrophils", "assay": "cis-unsaturated fatty acid-induced lipid body formation in human neutrophils (osmium staining, light microscopy enumeration)", "assay_type": "cell-based", "conditions": "human neutrophils", "method": "Neutrophils were purified from fresh human blood obtained by venipuncture from healthy adult volunteers and collected into acidified citrate. After addition of 6% dextran 70 (McGaw, Irvine, Calif.), RBCs were allowed to sediment for 1 hour at room temperature. The leukocyte-rich supernatant was overlaid onto an equal volume of Ficoll-Paque gradient (Piscataway, N.J.), and centrifuged at 400×g for 20 min. […] Residual RBCs were lysed with hypotonic saline.\nHuman leukocytes (10^6 cells/mL) were incubated with varying concentrations of arachidonic acid (AA), oleic acid (OA) or vehicle at 37° C. in a 5% CO2 /95% O2 atmosphere, and after 1 hour leukocytes (10^5 cells per slide) were cytocentrifuged (550 rpm, 5 min) onto glass slides. During inhibitory studies, neutrophils were pretreated for 1 hour with varying concentrations of enzyme inhibitors, protein synthesis inhibitors, or vehicle as indicated. When PKC inhibitors were used, the pre-incubation time was reduced to 30 minutes to avoid toxic effects to the cells. […] Stock solutions for A23187, D609, U-73122, and indomethacin were prepared in DMSO and stored at -20° C. Aliquots were diluted in Ca^++ /Mg^++ fee HBSS to the indicated concentration immediately prior to use. […] The morphology of fixed cells was observed, and lipid bodies were enumerated with phase contrast microscopy and a 100× objective lens in 50 consecutively scanned leukocytes.\nResults were expressed as mean±SEM and were analyzed statistically by means of the analysis of variance followed by the Newman-Keuls-Student test with the level of significance set at p<0.05. Correlation coefficients were determined by linear regression, and correlation analysis was performed by Fisher's r to z transformation with the level of significance set at p<0.05.\n^1 Neutrophils (10^6 /ml) were pretreated with protein kinase C\n(actinomycin D, cycloheximide) for 30 min or with phospholipase C\ninhibitors (D609, U73122) for 1 h. The cells were then stimulated with\nvehicle, arachidonic acid (15 μM), or oleic acid (10 μM), for 1 h.\nResults are mean ± SEM from fifty consecutively counted neutrophils.\nStatistically significant differences between the agonist alone and the\ninhibitor are represented by an asterisk(*). Percent inhibition has been\ncalculated after subtracting out the basal number of lipid bodies/PMN\npresent prior to stimulation.\n^1 Neutrophils (10^6 /ml) were pretreated with the NSAID or\nvehicle for 1 h then stimulated with vehicle, arachidonic acid, or oleic\n± SEM from fifty consecutively counted neutrophils. Statistically\nsignificant differences between the agonist alone and the NSAID are\nrepresented by an asterisk (*). Percent inhibition has been calculated\nafter subtracting out the basal number of lipid bodies/PMN present prior"}, "[3]": {"system": "peritoneal macrophages from wild type mice", "assay": "lipid body formation in peritoneal macrophages from wild type mice", "assay_type": "cell-based, mouse", "conditions": "for induction of lipid bodies in macrophages: wild-type mouse, AA 3.7-15 μM or OA 2.5-10 μM", "method": "as §1, §2, §3, §4, §5, §6"}, "[4]": {"system": "wild-type mouse neutrophils", "assay": "lipid body formation in wild-type mouse neutrophils", "assay_type": "cell-based", "conditions": "AA 3.7-15 μM or OA 2.5-10 μM"}, "[5]": {"system": "neutrophils (arachidonic acid uptake)", "assay": "14C-arachidonic acid uptake in arachidonic acid-stimulated neutrophils", "assay_type": "cell-based, human", "method": "Neutrophils (10^6 /mL) were labeled with ^14 C-arachidonic acid (0.01 μCi/sample) together with either vehicle, aspirin (10 μg/mL), indomethacin (1 μg/mL) or sodium salicylate (10 μg/mL) for 1 hour. After the incubation period, lipid body formation was elicited by arachidonic acid (15 μM). The cells were washed 3 times in Ca^++ /Mg^++ free HBSS and analysis of incorporated ^14 C-arachidonic acid in the cell pellet was performed by liquid scintillation counting.\n^1 The cells were pretreated with ^14 Carachidonic acid (0.01\nμCi/sample) plus vehicle, aspirin (10 μg/ml) , sodium salicylate (1\nμg/ml) or indomethacin (1 μg/ml) 1 h before the incubation with\narachidonic acid (15 μM). Cells were washed 3 times before the analysi\nof incorporated ^14 Carachidonic acid. Results are representative of\nindependent experiments."}, "[6]": {"system": "human eosinophils (PGE2 production)", "assay": "PGE2 production by human eosinophils (priming, A23187 stimulation, ELISA)", "assay_type": "cell-based", "conditions": "10 μg/mL pretreatment", "method": "FIG. 2B is a graph illustrating the effect of arachidonic acid (AA) and oleic acid (OA) on induction of lipid body formation (black) and priming effects (white) for enhanced prostaglandin E2 (PGE2) by human eosinophils. Eosinophils (10^6 /mL) were stimulated for one hour with arachidonic acid (3.7, 7.5, 15 μM) or oleic acid (2.5, 5, 10 μM). Lipid bodies were enumerated using light microscopy following osmium staining. The concentration of PGE2 in the supernatant was measured by ELISA after incubation with A23187 (0.5 μM) for 15 minutes at 37° C. Data are expressed as mean from 2 independent assays performed in duplicate.\nAfter the incubation time, a sample was taken for lipid body enumeration and the cells were washed in Ca^++ /Mg^++ free HBSS. Leukocytes were resuspended in 1 mL of HBSS containing Ca^++ /Mg^++ and then stimulated with A23187 (0.5 μM) for 15 min. The reaction was stopped on ice, and the samples were centrifuged at 1500 rpm for 10 min at 4° C. The concentrations of PGE2, LTB4, and LTC4 in the supernatants were assayed by ELISA according to the manufacturer's instructions (Cayman, Ann Arbor, Mich.)."}, "colorectal cancer": {"system": "colorectal cancer", "conditions": "humans taking drug regularly vs persons not taking; cited from earlier work"}, "[7]": {"conditions": "staurosporine 0.1-1.0 μM, aspirin 10 μg/mL, others as in Tables 1 and 2"}},
  "data": [
    {"smiles": "CCCCC/C=C\\C/C=C\\C/C=C\\C/C=C\\CCCC(=O)O", "note": "[arachidonic acid]", "values": [
      {"measurement": "lipid bodies (mean ± SEM)/macrophage", "setting": "[1]; COX 1 knockout, AA 15 μM alone, 1 h, no NSAID", "value": "7.0 ± 0.5", "unit": "lipid bodies/macrophage"},
      {"measurement": "induction of lipid body formation in macrophages", "setting": "[1]", "value": "induced lipid body formation"},
      {"measurement": "induction of lipid body formation in macrophages", "setting": "[2]", "value": "induced lipid body formation"},
      {"measurement": "increase in number of lipid bodies", "setting": "human neutrophils", "value": "dose-dependent increase in the number of lipid bodies"},
      {"measurement": "lipid bodies (mean ± SEM)/macrophage", "setting": "[3]; wild type, AA 15 μM alone, 1 h, no NSAID", "value": "6.8 ± 0.3", "unit": "lipid bodies/macrophage"},
      {"measurement": "induction of lipid bodies in macrophages", "setting": "[3]", "value": "can also be stimulated in vitro to produce lipid bodies"},
      {"measurement": "induction of lipid bodies in neutrophils", "setting": "[4]", "value": "can also be stimulated in vitro to produce lipid bodies"}
    ]},
    {"smiles": "CC(=O)Oc1ccccc1C(=O)O", "note": "[aspirin]", "values": [
      {"measurement": "inhibition of 14C-arachidonic acid uptake", "setting": "[5]; arachidonic acid-stimulated cells, aspirin 10 μg/mL, sodium salicylate 10 μg/mL, indomethacin 1 μg/mL", "value": "failed to inhibit"},
      {"measurement": "14C-AA uptake", "setting": "[5]; stimulus arachidonate 15 μM, drug 10 μg/ml", "value": 6974, "unit": "cpm"},
      {"measurement": "inhibition of arachidonic acid-induced lipid body formation", "setting": "human neutrophils; [7]", "value": "significantly inhibited"},
      {"measurement": "inhibition of oleic acid-induced lipid body formation", "setting": "human neutrophils; [7]", "value": "significantly inhibited"},
      {"measurement": "inhibition of PGE2 production", "setting": "[6]", "value": "inhibited PGE2 production"},
      {"measurement": "lower risk of developing colorectal cancer", "setting": "colorectal cancer", "value": "40-50%"}
    ]},
    {"smiles": "CCCCCCCC/C=C\\CCCCCCCC(=O)O", "note": "[oleic acid]", "values": [
      {"measurement": "induction of lipid body formation in macrophages", "setting": "[1]", "value": "induced lipid body formation"},
      {"measurement": "induction of lipid body formation in macrophages", "setting": "[2]", "value": "induced lipid body formation"},
      {"measurement": "increase in number of lipid bodies", "setting": "human neutrophils", "value": "dose-dependent increase in the number of lipid bodies"},
      {"measurement": "induction of lipid bodies in macrophages", "setting": "[3]", "value": "can also be stimulated in vitro to produce lipid bodies"},
      {"measurement": "induction of lipid bodies in neutrophils", "setting": "[4]", "value": "can also be stimulated in vitro to produce lipid bodies"}
    ]}
  ]
}
